This is an account of results in PubChem BioAssay (NCI).

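Growth conditions: 96-well plates. Treatment: test compound, 48 hours, 5 concentrations. Analysis: linear interpolation between bracketing concentrations; unreached endpoints set to highest concentration. Definition used: TGI = concentration required for complete inhibition of growth.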 Where only a bound is given, the exact number is not on record here.

Test systems include UACC-62 melanoma; MOLT-4 leukemia; A498 renal; OVCAR-8 ovarian; KM12 colon; CCRF-CEM leukemia; SK-MEL-2 melanoma; SF-539 CNS; K-562 leukemia; CAKI-1 renal.
What all share (test): NCI anticancer screen, dose series, 48 h

Take `CC(=O)Oc1cc2c(cc1OCC(F)(F)F)[C@H]1CC[C@]3(C)[C@@H](OC(C)=O)CC[C@H]3[C@@H]1CC2=O`: the TGI with UACC-62 melanoma was 42.6 µM; with MOLT-4 leukemia it was 38.8 µM; in the experiment with A498 renal, 27 µM; in the experiment on OVCAR-8 ovarian, 57 µM; in the experiment with KM12 colon it was 74.9 µM; in the experiment on CCRF-CEM leukemia, 40.1 µM. The TGI in the experiment on SK-MEL-2 melanoma was 44.7 µM; in the experiment with SF-539 CNS it was 46.1 µM; with K-562 leukemia it was above 100 µM; with CAKI-1 renal, 47 µM.

Turning to `Cc1ccc(C(=O)Nc2ccc(CP(=O)(O)O)cc2CP(=O)(O)O)cc1N`, the TGI in the experiment with UACC-62 melanoma, in the experiment on MOLT-4 leukemia, in the experiment with A498 renal, in the experiment with OVCAR-8 ovarian, in the experiment on KM12 colon and in the experiment with CCRF-CEM leukemia was above 100 µM in each case. Further, the TGI with SK-MEL-2 melanoma, with SF-539 CNS, in the experiment on K-562 leukemia and with CAKI-1 renal was above 100 µM each time.

For `COc1cccc2c(=O)oc(-c3ccccc3C)nc12`, the TGI is above 100 µM with UACC-62 melanoma; 68 µM with MOLT-4 leukemia; above 100 µM with A498 renal; above 100 µM in the experiment on OVCAR-8 ovarian; above 100 µM in the experiment with KM12 colon; 73 µM with CCRF-CEM leukemia. Further, the TGI in the experiment with SK-MEL-2 melanoma was 67.5 µM; with SF-539 CNS it was 69.4 µM; in the experiment with K-562 leukemia, above 100 µM; in the experiment on CAKI-1 renal, above 100 µM.

Turning to `Cc1cc(NC(=O)NC(=O)c2ccccc2NC(=O)CN(C)C)ccc1Oc1ncc(Br)cn1`, the TGI is above 82.9 µM in the experiment with UACC-62 melanoma; 59.8 µM in the experiment on MOLT-4 leukemia; 17 µM in the experiment with A498 renal; above 100 µM in the experiment on OVCAR-8 ovarian; above 100 µM in the experiment on KM12 colon; above 63.8 µM in the experiment on CCRF-CEM leukemia. Besides, the TGI with SK-MEL-2 melanoma is above 85.1 µM; in the experiment with SF-539 CNS, 10.6 µM; in the experiment on K-562 leukemia, above 57.8 µM; with CAKI-1 renal it was 64.3 µM.

Consider `COc1cc2c(cc1O)C(Cc1ccc(OCc3ccccc3)c(OCc3ccccc3)c1)N(C(=O)NCCc1ccccc1)CC2` (stereo not given), for which the TGI in the experiment on UACC-62 melanoma, in the experiment with MOLT-4 leukemia, in the experiment on A498 renal, in the experiment with OVCAR-8 ovarian, with KM12 colon and in the experiment on CCRF-CEM leukemia was above 100 µM each time. Also, the TGI in the experiment with SK-MEL-2 melanoma, in the experiment on SF-539 CNS, with K-562 leukemia and with CAKI-1 renal was above 100 µM in each case.

Take `COc1ccc(C2C(=O)c3ccc(OC)cc3OC2c2cccnc2)cc1` (stereo not given): the TGI in the experiment on UACC-62 melanoma, in the experiment on MOLT-4 leukemia, with A498 renal, with OVCAR-8 ovarian, in the experiment on KM12 colon and in the experiment with CCRF-CEM leukemia was above 100 µM throughout. In addition, the TGI in the experiment with SK-MEL-2 melanoma, in the experiment with SF-539 CNS, with K-562 leukemia and with CAKI-1 renal was above 100 µM throughout.

Turning to `CCNC(=S)N/N=C(/C)c1cccc(/C(C)=N\NC(=S)NCC)n1`, the TGI with UACC-62 melanoma is 27.2 µM; in the experiment on MOLT-4 leukemia, 14.7 µM; in the experiment on A498 renal it was 56.7 µM; in the experiment on OVCAR-8 ovarian, 16.9 µM; with KM12 colon, above 51.1 µM; with CCRF-CEM leukemia, above 19.1 µM. In addition, the TGI in the experiment with SK-MEL-2 melanoma was above 93.1 µM; in the experiment with SF-539 CNS, 23.7 µM; in the experiment with K-562 leukemia, 26.3 µM; in the experiment with CAKI-1 renal, 74.1 µM.

In the case of `COC(=O)c1c(O)ccc2c1c1c(n2Cc2ccc(OC)cc2)C(=O)c2ccccc2C1`, the TGI with UACC-62 melanoma is above 100 µM; in the experiment with MOLT-4 leukemia, above 100 µM; in the experiment with A498 renal it was above 100 µM; in the experiment on OVCAR-8 ovarian, above 100 µM; in the experiment with KM12 colon it was above 100 µM; in the experiment on CCRF-CEM leukemia, 89.4 µM. Besides, the TGI with SK-MEL-2 melanoma is above 100 µM; in the experiment with SF-539 CNS, above 100 µM; in the experiment with K-562 leukemia, above 100 µM; with CAKI-1 renal it was 74.1 µM.

Take `CC(C)OC(=O)C(NC(=O)C(CC(=O)OCc1ccccc1)NC(=O)OCc1ccccc1)NC(=O)C1C(C)(C)CCC1(C)C` (stereo not given): the TGI was 47.9 µM in the experiment with UACC-62 melanoma; above 51 µM with MOLT-4 leukemia; 4.37 µM with A498 renal; 4.19 µM in the experiment with OVCAR-8 ovarian; 34.9 µM with KM12 colon; above 41.2 µM with CCRF-CEM leukemia. The TGI worked out at 58.4 µM in the experiment with SK-MEL-2 melanoma, 13.1 µM with SF-539 CNS, 15.9 µM with K-562 leukemia and 21.9 µM in the experiment with CAKI-1 renal.

As for `CC1(C)CCC[C@@]2(C)C1CC[C@@]1(CO)O[C@H](C3=CC(=O)OC3O)C[C@H]12` (stereo not given in full), the TGI in the experiment on UACC-62 melanoma came out at 15.3 µM; in the experiment on MOLT-4 leukemia it was 11.5 µM; in the experiment on A498 renal, 30.1 µM; with OVCAR-8 ovarian, 36.2 µM; with KM12 colon it was 36.3 µM; with CCRF-CEM leukemia, 10 µM. Also, the TGI in the experiment with SK-MEL-2 melanoma was 28.9 µM; in the experiment on SF-539 CNS, above 59.8 µM; with K-562 leukemia, 63.9 µM; in the experiment with CAKI-1 renal, 28.6 µM.

As for `O=c1c2[nH]cnc2n(-c2ccccc2)c(=S)n1-c1ccccc1`, the TGI in the experiment on UACC-62 melanoma, in the experiment with MOLT-4 leukemia, in the experiment with A498 renal, in the experiment with OVCAR-8 ovarian, in the experiment with KM12 colon and in the experiment with CCRF-CEM leukemia was above 100 µM in each case. Besides, the TGI in the experiment on SK-MEL-2 melanoma, in the experiment on SF-539 CNS, in the experiment on K-562 leukemia and in the experiment on CAKI-1 renal was above 100 µM throughout.

For `O=C(O)[C@H]1NC[C@H]2C(Br)=NO[C@@H]12`, the TGI in the experiment on UACC-62 melanoma, with MOLT-4 leukemia, in the experiment with A498 renal, in the experiment with OVCAR-8 ovarian, in the experiment with KM12 colon and in the experiment on CCRF-CEM leukemia was above 100 µM each time. Also, the TGI with SK-MEL-2 melanoma, with SF-539 CNS, in the experiment with K-562 leukemia and in the experiment with CAKI-1 renal was above 100 µM each time.

Consider `O=C(/C=C/c1ccccc1)c1cc(CN2CCOCC2)c(O)c(CN2CCOCC2)c1`, for which the TGI with UACC-62 melanoma is 39.5 µM; in the experiment on MOLT-4 leukemia it was 75.6 µM; in the experiment with A498 renal, 28.2 µM; in the experiment with OVCAR-8 ovarian, above 100 µM; in the experiment on KM12 colon it was 33.1 µM; in the experiment on CCRF-CEM leukemia, 16.7 µM. Further, the TGI in the experiment on SK-MEL-2 melanoma was found to be 61.8 µM; in the experiment with SF-539 CNS it was 32.6 µM; with K-562 leukemia it was 36.2 µM; with CAKI-1 renal, 4.36 µM.
